Reference: patent US5500430A, “Amidic derivatives of glutamic, aspartic and 2-amino adipic acids, a process for preparing same, and anti-gastrin composition containing the derivatives” (Rotta Research Laboratorium S.p.A., priority 1990, dated 1996)
Like-named read-outs stand apart in the source and are kept apart here.

Assays:
[1] = tested on: fundic mucosa; experiment: Fundic mucosa hyperplasia induced by pentagastrin in mice; format: in vivo; conditions: 21 days
Description: (§1) Inhibitory effect on the rate of growth of tumorous colic cells induced by pentagastrin
(§2) Gastrin has a trophic effect on the digestive epithelium.
(§3) Upon the basis of this premise, it was wished to investigate whether the gastrin-specific antagonists of the invention could antagonise the growth of experimentally-induced gastrointestinal tumours.
(§4) Male mice weighing 20-25 g were inoculated subcutaneously in the interscapular region with a suspension of 8×10^4 tumour cells of a mouse colic adenocarcinoma.
(§5) After 21 days, the animals were killed and the fundic mucosa and the tumours were removed, weighed and extracted to determine the DNA.

[2] = target: T1, gastrin receptor sites on the cerebral cortex membranes of mice (Mus musculus, UniProt P56481); experiment: Inhibition of the binding of pentagastrin to mouse cortical membranes
T1 construct: Mouse cortical tissue; from tissue; host or cells: mouse cerebral cortex membranes
T1 sequence (P56481 1-453): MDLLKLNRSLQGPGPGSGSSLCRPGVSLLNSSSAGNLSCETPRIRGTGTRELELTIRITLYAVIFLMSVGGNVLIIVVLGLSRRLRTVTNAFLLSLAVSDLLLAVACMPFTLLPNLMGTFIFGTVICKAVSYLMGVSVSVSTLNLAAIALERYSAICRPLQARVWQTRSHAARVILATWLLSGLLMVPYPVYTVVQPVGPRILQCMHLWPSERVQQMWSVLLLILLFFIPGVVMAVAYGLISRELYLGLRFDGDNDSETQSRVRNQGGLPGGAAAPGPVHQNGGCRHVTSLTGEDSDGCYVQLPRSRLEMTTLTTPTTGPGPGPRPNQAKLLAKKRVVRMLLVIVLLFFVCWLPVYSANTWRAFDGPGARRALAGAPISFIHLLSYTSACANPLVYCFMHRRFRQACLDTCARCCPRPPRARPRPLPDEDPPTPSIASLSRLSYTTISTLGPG
Description: Tests on binding to cerebral cortex membranes of mice
The capacities of some of the compounds of the invention to inhibit the binding of pentagastrin to the gastrin receptor sites on the cerebral cortex membranes of mice was to be evaluated. Pentagastrin tritiate[beta-alanyl-3-3H(N)] was used as the ligand.
Mouse cortical tissue Was homogenised cold in 20 volumes of tris buffer (pH 7.7). After washing and centrifuging, the final pellet was resuspended in 20 volumes of binding buffer containing, inter alia, TRIS, BSA and Bacitracin. 0.4 ml of the membrane thus obtained were then incubated with a radioactive tracer and the compounds under test for 40 minutes at 37° C.
After the supernatant liquid had been removed by centrifuging, the radioactivity associated with the pellet was determined with a liquid scintillator (a beta-counter). The specific binding was the difference between the binding in the absence and in the presence of 10^-5M pentagastrin.

[3] = tested on: mouse colic adenocarcinoma; experiment: Colic tumorous growth induced by pentagastrin in mice; format: in vivo; conditions: 21 days
Description: as §1, §2, §3, §4, §5

[4] = tested on: fundic and colic mucosae; conditions: rats; cited from earlier work
[5] = tested on: gastric acid secretion induced by pentagastrin; experiment: Antisecretive activity in anaesthetised rats (pentagastrin-stimulated gastric acid secretion); format: in vivo
Experimental: Antisecretive activity in anaesthetised rats
Antisecretive activity in rats was determined with the use of male animals each weighing about 200 g, anaesthetised with urethane. Gastric secretion was stimulated with pentagastrin. The method of K. S. Lai (Gut 5, (1964), 327-341) was used, slightly modified.
After tracheotomy, cannulae were inserted in the oesophagus and the duodenum. A tepid solution. (37° C.) of 0.25 mM NaOH was perfused and passed through the stomach by means of a peristaltic pump at a constant flow rate of 1 ml/minute. After stabilisation for 20 minutes, the stimulating agent, dissolved in a physiological solution, was perfused for 120 minutes at a dose of 30 mcg/Kg/h in a volume of 0.95 ml/hour. After perfusion for 60 minutes (the basal stimulation), the product under test was administered as an intravenous bolus (I.V.) and the perfusion of the stimulant continued for a further 60 minutes. Acid secretion was recorded continuously as a function of time.
The activity of the product was evaluated as the percentage reduction in the secreted acidity after the administration of the product compared with the base acidity measured during the first 60 minutes of collection during which only the pentagastrin was present.
Different doses of the antagonist compounds tested were administered so that an ID50, that is, the dose (in mg/Kg I.V.) capable of inhibiting the effect of pentagastrin by 50%, could be calculated.
The results thus obtained are illustrated in the following table (Table 1) in which the activities of the compounds are expressed as the ID50s under the stimulus of 30 mcg/Kg/h of pentagastrin.

[6] = tested on: guinea-pig gall bladder contracted with CCK-8; experiment: Anticholecystokinin (anti-CCK) activity on guinea-pig gall bladders stimulated by CCK-8 in vitro; conditions: CCK-8 concentration 10 ng/ml, Krebs, 32° C.
Experimental: Anticholecystokinin (anti-cc, K) activity
In order to confirm the hypothesis that the molecular conformations of the compounds of the invention are suitable to provide them with antagonistic activity towards CCK as well as towards gastrin, the anticontracturant activities of some of the compounds of the invention were tested on guinea-pig gall bladders stimulated by CCK-8 in vitro.
A longitudinal strip of guinea-pig gall bladder was placed in a bath for isolated organs in the presence of Krebs at a temperature of 32° C. and oxygenated continuously with an oxygen-CO2 mixture (95-5 V/V).
The isometric contractions were detected by means of a force transducer and recorded.
The gall bladder was contracted with the use of a concentration of 10 ng/ml of CCK-8; the antagonistic activities of the compounds towards the contracturant effect of the CCK was determined with the use of different concentrations, thus determining the IC50 values, that is, the concentration of the compound in mcg/ml which can antagonise the contracturant effect of CCK by 50%.

[7] = tested on: gastric acid secretion induced by pentagastrin; experiment: Antisecretive activity in conscious dogs carrying gastric fistulae; format: in vivo, dogs (beagles); conditions: for ED50: Canis lupus familiaris, iv, read-out: ID50 (the source's name)
Experimental: Antisecretive activity in conscious dogs
Male beagles weighing about 10 Kg were used and carried gastric fistulae at the level of the greater curvature, connected near the antral region, steel cannulae 5 cm long and 2 cm wide being inserted for collecting the gastric juices externally. After a period of about one month to recover from the operation, and after suitable conditioning, the animals were treated with pentagastrin at a dose of 3 mcg/Kg/h. The Stimulant, dissolved in a physiological solution, was perfused into the femoral vein for 180 minutes at a rate of 1.9 ml/h. After perfusion for 60 minutes (the basal stimulation) the product under test, dissolved in a physiological solution (1 ml/Kg), was administered in a bolus into the contra-lateral vein and, at the same time, the perfusion of the stimulant continued for a further 120 minutes. The acid secretion was recorded continuously as a function of time.
The activity of the product was evaluated as the percentage reduction in the secreted acidity after the administration of the product compared with the base acidity measured during the first 60 minutes of collection during which only the pentagastrin was present, for each of the periods 0-60 and 60-120 minutes after the product had been administered in a bolus.
Different doses of the compounds (C-1 and C-5) tested were administered so that an ID50, that is the dose (in mg/Kg I.V.) capable of inhibiting the effect of the pentagastrin by 50% could be calculated.
The results obtained are given in the following table (Tab. 2) in which the % variations from the base (the mean ± standard deviations calculated on the values obtained from 4 animals) are given for the various doses administered under the stimulus of 3 mcg/Kg/h of pentagastrin, as well as the activities of the compounds, calculated as their ID50s, and the correlation coefficients of the regression lines calculated on the basis of the experimental data.

[8] = tested on: transplantable mouse colic tumour; conditions: Winsell et al., Surgical Forum, 33, 384 (1982); cited from earlier work
[9] = pentagastrin alone, 250 mcg/Kg twice a day

CSCC[C@H](NC(=O)[C@H](Cc1c[nH]c2ccccc12)NC(=O)CCNC(=O)OC(C)(C)C)C(=O)N[C@@H](CC(=O)O)C(=O)N[C@@H](Cc1ccccc1)C(N)=O [Pentagastrin, pentagastrin, reference compound]
Effect on the fundic mucosa (in words) ([1]; mice): induces significant hyperplasia in the fundic mucosa
Fundic DNA, Mean ± SD [1, 9]: 0.330 ± 0.05 mg
Weight of the mucosa fundica, Mean ± SD [1, 9]: 32.0 ± 3.50 mg
IC50 [2]: 2.5 nM
Effect on colic tumour weight and DNA content (in words) ([3]; mice): a significant increase in the weight of the colic tumour and the DNA content
Tumorous DNA, Mean [3, 9]: 3.62 ± 0.50 mg
Weight of the colic tumor, Mean ± SD [3, 9]: 657.0 ± 97.7 mg
Trophic effect of chronic administration [4]: causes hyperplasia of the fundic and colic mucosae

O=C(O)CC[C@@H](NC(=O)c1cccc(Cl)c1)C(=O)N1CCC2(CCCC2)CC1 [Compound C1]
ED50 ([5]; Rattus norvegicus, iv, anaesthetised male rats, pentagastrin 30 mcg/Kg/h, I.V. bolus, IN with bound, read-out: Antagonistic activity (ID50) towards gastric acid secretion induced by pentagastrin): 20 mg/kg
Antigastrin activity (in words) ([5]; anaesthetised rats, pentagastrin 30 mcg/Kg/h): particularly favourable
Activity on the peripheral gastrin (gastric secretion) receptor relative to compound C2 (times more active) ([5]; rats, vs C2): about 1.5 times
Anti-CCK activity IC50 [6]: 20 µg/mL
Activity relative to the corresponding S enantiomer (times more active) ([2]; R series vs S enantiomers (C1 vs C32)): about 50 times
IC50 ([2]; pentagastrin tritiate ligand, 40 minutes at 37° C., read-out: IC50, inhibition of the binding of pentagastrin): 470 nM
Central activity relative to C2 ([2]; vs C2): only one third as active as C2 centrally
Variation % (Mean ± SD) from base (0-60 min) ([7]; 5 mg/Kg I.V., period 60-120 min): -18.2 ± 0.3%
Variation % (Mean ± SD) from base (0-60 min) ([7]; 5 mg/Kg I.V., period 120-180 min): -22.8 ± 16.7%
Variation % (Mean ± SD) from base (0-60 min) ([7]; 10 mg/Kg I.V., period 60-120 min): -38.9 ± 7.9%
Variation % (Mean ± SD) from base (0-60 min) ([7]; 10 mg/Kg I.V., period 120-180 min): -14.3 ± 8.5%
Variation % (Mean ± SD) from base (0-60 min) ([7]; 20 mg/Kg I.V., period 60-120 min): -49.5 ± 4.2%
Variation % (Mean ± SD) from base (0-60 min) ([7]; 20 mg/Kg I.V., period 120-180 min): -26.1 ± 6.4%
Variation % (Mean ± SD) from base (0-60 min) ([7]; 30 mg/Kg I.V., period 60-120 min): -61.1 ± 12.5%
Variation % (Mean ± SD) from base (0-60 min) ([7]; 30 mg/Kg I.V., period 120-180 min): -56.7 ± 19.5%
Variation % (Mean ± SD) from base (0-60 min) ([7]; 40 mg/Kg I.V., period 60-120 min): -63.4 ± 11.5%
Variation % (Mean ± SD) from base (0-60 min) ([7]; 40 mg/Kg I.V., period 120-180 min): -43.4 ± 10.3%
Variation % (Mean ± SD) from base (0-60 min) ([7]; 60 mg/Kg I.V., period 60-120 min): -74.2 ± 5.6%
Variation % (Mean ± SD) from base (0-60 min) ([7]; 60 mg/Kg I.V., period 120-180 min): -79.9 ± 1.6%
ED50 ([7]; 1 h, conscious dogs, I.V. bolus, period 60-120 min (first hour after administration)): 19.7 mg/kg
ED50 ([7]; 2 h, conscious dogs, I.V. bolus, period 120-180 min (second hour after administration)): 31.5 mg/kg
ID50 ([7]; conscious dogs, I.V. bolus, period 60-120 min (first hour after administration), 60 min): about 20 mg/Kg
Inhibition of gastric acid secretion induced by pentagastrin in dogs (in words) ([7]; conscious dogs, first hour after bolus): potent inhibitors of gastric acid secretion induced by pentagastrin in dogs

gastrin
Effect on growth of a transplantable mouse colic tumour [8]: stimulates the growth of a transplantable mouse colic tumour
Trophic effect of chronic administration [4]: causes hyperplasia of the fundic and colic mucosae
